“Also recorded” adds a separate entry of the source. Like-named read-outs stand apart in the source and are kept apart here. Values belong to the molecule of their own block, whether it stands above or below them.
What was measured:
[1] = Safety and tolerability: treatment-emergent adverse events by intervention; format: in vivo, human; details: for number of TEAEs (all) / number of subjects with TEAEs / percentage of subjects with TEAEs: per intervention (R1 31, R2 28, T 30, V 29 subjects), T and V co-administered with atorvastatin; for subjects who discontinued the study due to AEs: neutropenia in intervention T, blood creatine phosphokinase increased in intervention R
Description: Safety was assessed based on symptom reports, physical examinations, vital signs, 12-lead ECGs, and clinical laboratory tests (hematology, clinical chemistry, and urinalysis).

clinical = details: human, in vivo, AUCτ
[2] = human, in vivo
CYP3A4 [3] = test system: CYP3A4; design: method as in Nishihara et al., 2019; HK inno.N Corp; details: in vitro; ref Nishihara et al., 2019; HK inno.N Corp; cited from earlier work
CYP3A4 [4] = assay: CYP3A4 inhibition in vitro (literature values); format: biochemical; details: ref Nishihara et al., 2019, HK inno.N Corp
[5] = Serum gastrin, pepsinogen I and II levels pre-dose and 24 h after 7 days of administration; format: in vivo, human; details: co-administered with atorvastatin for 7 days; compared to the baseline
Source text: Error bars represent standard errors. The increase of serum levels in each intervention was compared to the intervention R. P-values were adjusted by Tukey-Kramer method; *p < 0.05; **p < 0.001.

OATP1B1 = details: cited from earlier work
CYP3A4 [6] = assay: Estimated intestinal luminal concentration of vonoprazan compared with the CYP3A4 IC50; details: vonoprazan 20 mg orally administered
[7] = Steady-state plasma pharmacokinetics of atorvastatin, 2-hydroxyatorvastatin and atorvastatin lactone after atorvastatin 40 mg once daily for 7 days, alone or co-administered with tegoprazan 50 mg or vonoprazan 20 mg; details: for AUCτ / Css,max / Tss,max: N = 28; for AUCτ / Css,max / Metabolic ratio (AUCmetabolite/AUCatorvastatin): mean ± SD; for Css,max, GMR (90% CI): ratio of atorvastatin co-administered with tegoprazan to administered alone; for Tss,max: plasma, median (minimum-maximum)
[8] = when absorbed through the intestine; ref Lennernäs, 2003; cited from earlier work
[9] = TEAE, intervention arm = label, P-CAB arms co-administered with atorvastatin 40 mg, 7 days
[10] = TEAE, serum gastrin greater than 200 ng/L, intervention arm = label, co-administered with atorvastatin 40 mg, 7 days
[11] = Atorvastatin alone (N = 28 for each intervention), comparison with tegoprazan
[12] = Atorvastatin alone (N = 28 for each intervention), comparison with vonoprazan
[13] = Reference 1: first intervention, atorvastatin 40 mg alone 7 days
[14] = Reference 2: second intervention, atorvastatin 40 mg alone 7 days
[15] = atorvastatin 40 mg co-administered with tegoprazan 50 mg 7 days
[16] = atorvastatin 40 mg co-administered with vonoprazan 20 mg 7 days
[17] = atorvastatin co-administered with vonoprazan compared to atorvastatin alone

Compound: CC(C)c1c(C(=O)Nc2ccccc2)c(-c2ccccc2)c(-c2ccc(F)cc2)n1CC[C@@H](O)C[C@@H](O)CC(=O)O [Reference 2, atorvastatin]
Anaemia: number of events [1, 9]: 1
Anaemia: number of subjects [1, 9]: 1
Anaemia: percentage of subjects [1, 9]: 3.6%
Blood bilirubin increased: number of events [1, 9]: 2
Blood bilirubin increased: number of subjects [1, 9]: 2
Blood bilirubin increased: percentage of subjects [1, 9]: 7.1%
Pyuria: number of events [1, 9]: 1
Pyuria: number of subjects [1, 9]: 1
Pyuria: percentage of subjects [1, 9]: 3.6%
number of TEAEs (all) ([1]; listed as intervention R2): 8
number of subjects with TEAEs ([1]; listed as intervention R2): 7

AUC (clinical; 40 mg): 0.0611 ± 0.0302 µg·h/mL
AUC (clinical; geometric least squares mean): 0.0521 µg·h/mL
AUCτ, geometric least squares mean [2]: 0.0673 µg·h/mL
AUCτ ([2]; 40 mg): 0.05736 ± 0.02851 µg·h/mL
Compound: CC(C)c1c(C(=O)Nc2ccccc2)c(-c2ccccc2)c(-c2ccc(F)cc2)n1CC[C@@H]1C[C@@H](O)CC(=O)O1 [Atorvastatin lactone, atorvastatin lactone]

Compound: CC(C)c1c(C(=O)Nc2ccccc2)c(-c2ccccc2)c(-c2ccc(F)cc2)n1CC[C@@H](O)C[C@@H](O)CC(=O)O [Reference 1, atorvastatin]
Anaemia: number of events [1, 9]: 1
Anaemia: number of subjects [1, 9]: 1
Anaemia: percentage of subjects [1, 9]: 3.2%
Blood bilirubin increased: number of events [1, 9]: 1
Blood bilirubin increased: number of subjects [1, 9]: 1
Blood bilirubin increased: percentage of subjects [1, 9]: 3.2%
Ocular discomfort: number of events [1, 9]: 1
Ocular discomfort: number of subjects [1, 9]: 1
Ocular discomfort: percentage of subjects [1, 9]: 3.2%
Pyuria: number of events [1, 9]: 1
Pyuria: number of subjects [1, 9]: 1
Pyuria: percentage of subjects [1, 9]: 3.2%
number of TEAEs (all) [1]: Seven
number of subjects with TEAEs [1]: 6
percentage of subjects with TEAEs [1]: 19.4%

Compound: CNCc1cc(-c2ccccc2F)n(S(=O)(=O)c2cccnc2)c1 [Vonoprazan, vonoprazan]
inhibition of OATP1B1 (OATP1B1; in vitro study, ref Pharmaceuticals and Medical Devices Agency, 2014): did not inhibit OATP1B1
Hypergastrinaemia: percentage of subjects [1, 10]: 20.7%
Blood bilirubin increased: number of events [1, 9]: 1
Blood bilirubin increased: number of subjects [1, 9]: 1
Dyspepsia: number of events [1, 9]: 2
Dyspepsia: number of subjects [1, 9]: 2
Headache: number of events [1, 9]: 2
Headache: number of subjects [1, 9]: 2
Neutrophil count decreased: number of events [1, 9]: 2
Neutrophil count decreased: number of subjects [1, 9]: 2
Pyuria: number of events [1, 9]: 2
Pyuria: number of subjects [1, 9]: 2
occurrence of hypergastrinemia (serum gastrin level greater than 200 ng/L) ([1]; across the interventions): only occurred when atorvastatin was co-administered with vonoprazan
number of TEAEs (all) [1]: 17
percentage of subjects with TEAEs [1]: 51.7%

expected plasma concentration at clinical doses relative to the CYP3A4 IC50 (fold lower) (CYP3A4 [4]): 25 fold
Compound: Cc1nc2cc(C(=O)N(C)C)cc(O[C@H]3CCOc4cc(F)cc(F)c43)c2[nH]1 [Tegoprazan, tegoprazan]
IC50 (CYP3A4 [3]): > 30 µM
increase in serum pepsinogen I [5]: 2.7 times
increase in serum pepsinogen II [5]: 2.2 times
increase of serum gastrin [5]: 1.2 times
inhibitory activity on OATP1B1 (OATP1B1; in vitro / non-clinical study, ref HK inno.N Corp): showed the inhibitory activity on some OATP1B1 substrates; also recorded: showed various inhibitory activities
Blood bilirubin increased: number of events [1, 9]: 2
Blood bilirubin increased: number of subjects [1, 9]: 2
Blood bilirubin increased: percentage of subjects [1, 9]: 6.7%
Neutrophil count decreased: number of events [1, 9]: 1
Neutrophil count decreased: number of subjects [1, 9]: 1
Neutrophil count decreased: percentage of subjects [1, 9]: 3.3%
Ocular discomfort: number of events [1, 9]: 1
Ocular discomfort: number of subjects [1, 9]: 1
Ocular discomfort: percentage of subjects [1, 9]: 3.3%
Pyuria: number of events [1, 9]: 1
Pyuria: number of subjects [1, 9]: 1
Pyuria: percentage of subjects [1, 9]: 3.3%
subjects who discontinued the study due to AEs [1]: 1
number of TEAEs (all) [1]: Ten
number of subjects with TEAEs [1]: 7
percentage of subjects with TEAEs [1]: 23.3%

AUCτ, geometric least squares mean [7, 11]: 0.1379 µg·h/mL
Css,max, geometric least squares mean [7, 11]: 0.0225 µg/mL
AUCτ, geometric least squares mean [7, 12]: 0.1382 µg·h/mL
Css,max, geometric least squares mean [7, 12]: 0.0227 µg/mL
AUCτ [7, 13]: 0.15204 ± 0.07025 µg·h/mL
Css,max [7, 13]: 0.02495 ± 0.01177 µg/mL
Metabolic ratio (AUCmetabolite/AUCatorvastatin) [7, 13]: 1.27 ± 0.52
AUCτ [7, 14]: 0.14435 ± 0.05871 µg·h/mL
Css,max [7, 14]: 0.02572 ± 0.01715 µg/mL
Metabolic ratio (AUCmetabolite/AUCatorvastatin) [7, 14]: 1.32 ± 0.55
AUCτ, geometric least squares mean ([7]; With Tegoprazan (N = 28)): 0.1448 µg·h/mL
Css,max, geometric least squares mean ([7]; With Tegoprazan (N = 28)): 0.0238 µg/mL
AUCτ, geometric least squares mean ([7]; With Vonoprazan (N = 28)): 0.1251 µg·h/mL
Css,max, geometric least squares mean ([7]; With Vonoprazan (N = 28)): 0.01591 µg/mL
AUCτ [7, 15]: 0.15646 ± 0.06769 µg·h/mL
Css,max [7, 15]: 0.02634 ± 0.01264 µg/mL
Metabolic ratio (AUCmetabolite/AUCatorvastatin) [7, 15]: 1.31 ± 0.47
AUCτ [7, 16]: 0.13557 ± 0.06405 µg·h/mL
Css,max [7, 16]: 0.01819 ± 0.01216 µg/mL
Metabolic ratio (AUCmetabolite/AUCatorvastatin) [7, 16]: 0.90 ± 0.32
Decrease of AUCτ [7, 17]: 9%
Decrease of Css,max [7, 17]: 30%
Css,max, GMR (90% CI) [7]: 1.06 (0.95-1.17)
Compound: CC(C)c1c(C(=O)Nc2ccccc2O)c(-c2ccccc2)c(-c2ccc(F)cc2)n1CCC(O)CC(O)CC(=O)O (centres unmarked) [2-hydroxyatorvastatin]

Css,max, geometric least squares mean [7, 11]: 0.0324 µg/mL
Css,max, geometric least squares mean [7, 12]: 0.0324 µg/mL
Css,max [7, 13]: 0.03721 ± 0.01965 µg/mL
Tss,max ([7]; Reference 1: first intervention, atorvastatin 40 mg alone once daily 7 days): 0.75 (0.50–6.00) h
Css,max [7, 14]: 0.03737 ± 0.02281 µg/mL
Tss,max ([7]; Reference 2: second intervention, atorvastatin 40 mg alone once daily 7 days): 0.75 (0.50–3.00) h
Css,max, geometric least squares mean ([7]; With Tegoprazan (N = 28)): 0.0354 µg/mL
Css,max, geometric least squares mean ([7]; With Vonoprazan (N = 28)): 0.0379 µg/mL
Css,max [7, 15]: 0.04075 ± 0.02152 µg/mL
Tss,max ([7]; atorvastatin 40 mg co-administered with tegoprazan 50 mg once daily 7 days): 1.25 (0.50–3.00) h
Css,max [7, 16]: 0.04271 ± 0.02576 µg/mL
Tss,max ([7]; atorvastatin 40 mg co-administered with vonoprazan 20 mg once daily 7 days): 1.50 (0.50–4.00) h
Increase of Css,max ([7]; atorvastatin co-administered with tegoprazan, not statistically significant): 9%
Increase of Css,max [7, 17]: 17%
Css,max, GMR (90% CI) [7]: 1.09 (0.97–1.23)
within-subject CV of Css,max ([7]; this study, multiple doses for 7 days (data not shown)): 33.6%
Compound: CC(C)c1c(C(=O)Nc2ccccc2)c(-c2ccccc2)c(-c2ccc(F)cc2)n1CC[C@@H](O)C[C@@H](O)CC(=O)O [Atorvastatin, atorvastatin]
fraction of orally administered dose lost in the gut [8]: 76%
subjects who discontinued the study due to AEs [1]: 1
